Laboratory results reported in BindingDB's records for doi:10.1016/j.bmcl.2008.01.024 (Schering-Plough Research Institute, 2008).

Columns and labels:
[1] = Inhibition of CXCR2-mediated chemotaxis in Ba/F3 cells expressing human CXCR2
[2] = Inhibition of CXCR1-mediated chemotaxis in Ba/F3 cells expressing human CXCR1

CC[C@@H](Nc1c(Nc2cccc(C(=O)N(C)C)c2O)c(=O)c1=O)c1ccccn1 [(R)-3-(3,4-dioxo-2-(1-(pyridin-2-yl)propylamino)cyclobut-1-enylamino)-2-hydroxy-N,N-dimethylbenzamide]
IC50 [1]: 4.5 nM

CC[C@@H](Nc1c(Nc2cccc(C(=O)N(C)C)c2O)c(=O)c1=O)c1cc(Br)co1 [(R)-3-(2-(1-(4-bromofuran-2-yl)propylamino)-3,4-dioxocyclobut-1-enylamino)-2-hydroxy-N,N-dimethylbenzamide]
IC50 [1]: 2 nM
IC50 [2]: 917 nM

CC[C@@H](Nc1c(Nc2cccc(C(=O)N(C)C)c2O)c(=O)c1=O)c1cc(C)on1 [(R)-2-hydroxy-N,N-dimethyl-3-(2-(1-(5-methylisoxazol-3-yl)propylamino)-3,4-dioxocyclobut-1-enylamino)benzamide]
IC50 [1]: 12.2 nM
